Experimental data: US20220062240A1, “METHODS OF TREATING CANCER USING A CLK INHIBITOR” (BioSplice Therapeutics, Inc., priority 2018, published 2022)
Read-outs that look alike come from different tables or passages of the source.

What was measured:
CLK2 = molecular target: T1, CLK2 (Homo sapiens, UniProt P49760); experiment: CLK2 kinase activity assay (Z-lyte, Ser/Thr 6 peptide); assay type: biochemical; settings: recombinant CLK2 kinase, ATP 60 μM; read-out: EC50
T1 construct: purchased Thermo Fisher (Life Technologies), Z'-LYTE Kinase Assay Kits
T1 sequence (P49760 whole entry): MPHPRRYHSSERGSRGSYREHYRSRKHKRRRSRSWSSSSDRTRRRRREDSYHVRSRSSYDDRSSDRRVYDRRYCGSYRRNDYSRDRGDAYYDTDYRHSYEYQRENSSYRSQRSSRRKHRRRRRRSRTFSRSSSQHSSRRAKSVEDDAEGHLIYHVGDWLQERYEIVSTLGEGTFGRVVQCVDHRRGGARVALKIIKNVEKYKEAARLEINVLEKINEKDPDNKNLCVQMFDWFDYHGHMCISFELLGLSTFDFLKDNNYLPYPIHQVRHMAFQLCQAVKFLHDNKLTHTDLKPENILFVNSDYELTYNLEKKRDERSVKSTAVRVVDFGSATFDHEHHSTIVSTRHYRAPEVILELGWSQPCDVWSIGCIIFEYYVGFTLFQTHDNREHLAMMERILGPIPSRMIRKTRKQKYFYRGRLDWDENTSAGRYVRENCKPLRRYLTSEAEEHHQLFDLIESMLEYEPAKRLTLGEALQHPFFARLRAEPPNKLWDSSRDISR
Method: All reactions were performed in duplicate.

BT-549 = experiment: CellTiter-Glo Viability Assay, breast cancer; assay type: cell-based; settings: Homo sapiens, 96 h; BT-549, breast cancer, four days; read-out: EC50
CAMA1 = experiment: CellTiter-Glo Viability Assay, breast cancer; assay type: cell-based; settings: Homo sapiens, CAMA-1, 96 h; CAMA1, breast cancer, four days; read-out: EC50
DU4475 = experiment: CellTiter-Glo Viability Assay, breast cancer; assay type: cell-based; settings: Homo sapiens, DU-4475, 96 h; DU4475, breast cancer, four days; read-out: EC50
HCC1599 = experiment: CellTiter-Glo Viability Assay, breast cancer; assay type: cell-based; settings: Homo sapiens, 96 h; HCC1599, breast cancer, four days; read-out: EC50
MCF7 = experiment: CellTiter-Glo Viability Assay, breast cancer; assay type: cell-based; settings: Homo sapiens, 96 h; MCF7, breast cancer, four days; read-out: EC50
MDA-MB-231-Luc = experiment: CellTiter-Glo Viability Assay, breast cancer; assay type: cell-based; settings: Homo sapiens, 96 h; MDA-MB-231-Luc, breast cancer, four days; read-out: EC50
T47D = experiment: CellTiter-Glo Viability Assay, breast cancer; assay type: cell-based; settings: Homo sapiens, 96 h, breast cancer, four days, read-out: EC50
ZR-75-1 = experiment: CellTiter-Glo Viability Assay, breast cancer; assay type: cell-based; settings: Homo sapiens, 96 h; ZR-75-1, breast cancer, four days; read-out: EC50
all 50 cell lines = experiment: CellTiter-Glo Viability Assay, average across all cell lines; assay type: cell-based; settings: Homo sapiens; across all 50 cell lines; read-out: average EC50 for inhibition of cancer cell proliferation
Outline: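 4-day proliferation, 37° C/5% CO2; 300-3,000 cells/well; compound in duplicate vs DMSO controls. Panel: breast, colorectal, heme/lymphoid, liver, lung, ovarian, pancreatic, prostate lines. Read-out: CellTiter-Glo ATP luminescence, EC50 from dose-response.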

[1] = tested on: colorectal cancer (6 cell lines); experiment: CellTiter-Glo Viability Assay, colorectal cancer; assay type: cell-based; settings: Homo sapiens, inhibition of cancer cell proliferation
[2] = tested on: haematopoietic & lymphoid tumors (13 cell lines); experiment: CellTiter-Glo Viability Assay, haematopoietic & lymphoid tumors; assay type: cell-based; settings: Homo sapiens, inhibition of cancer cell proliferation
[3] = tested on: liver cancer (3 cell lines); experiment: CellTiter-Glo Viability Assay, liver cancer; assay type: cell-based; settings: Homo sapiens, inhibition of cancer cell proliferation
[4] = tested on: lung cancer (4 cell lines); experiment: CellTiter-Glo Viability Assay, lung cancer; assay type: cell-based; settings: Homo sapiens, inhibition of cancer cell proliferation
[5] = tested on: ovarian cancer (4 cell lines); experiment: CellTiter-Glo Viability Assay, ovarian cancer; assay type: cell-based; settings: Homo sapiens, inhibition of cancer cell proliferation
[6] = tested on: pancreatic cancer (8 cell lines); experiment: CellTiter-Glo Viability Assay, pancreatic cancer; assay type: cell-based; settings: Homo sapiens, inhibition of cancer cell proliferation
[7] = tested on: prostate cancer (5 cell lines); experiment: CellTiter-Glo Viability Assay, prostate cancer; assay type: cell-based; settings: Homo sapiens
CLK3 = CLK3 (Homo sapiens, UniProt P49761); experiment: CLK3 kinase activity assay (Z-lyte, Ser/Thr 18 peptide)
Chain of CLK3 (P49761 whole entry): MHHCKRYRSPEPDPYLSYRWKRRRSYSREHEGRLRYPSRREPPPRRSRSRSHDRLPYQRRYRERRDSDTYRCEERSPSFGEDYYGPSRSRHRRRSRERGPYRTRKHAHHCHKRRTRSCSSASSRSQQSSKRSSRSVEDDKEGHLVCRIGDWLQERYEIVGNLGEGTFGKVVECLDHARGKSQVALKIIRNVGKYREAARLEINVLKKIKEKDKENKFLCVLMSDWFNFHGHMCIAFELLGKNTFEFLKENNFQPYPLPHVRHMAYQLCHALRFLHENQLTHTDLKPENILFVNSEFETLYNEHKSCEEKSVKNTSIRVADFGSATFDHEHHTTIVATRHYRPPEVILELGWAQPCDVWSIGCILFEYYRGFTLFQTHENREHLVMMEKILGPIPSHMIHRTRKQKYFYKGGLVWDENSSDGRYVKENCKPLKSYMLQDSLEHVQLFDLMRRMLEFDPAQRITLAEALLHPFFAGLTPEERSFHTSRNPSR

EC50 (CLK2): 0.0019 µM | EC50 (BT-549): 0.812 µM | EC50 (CAMA1): > 3.5 µM | EC50 (DU4475): 2.8 µM | EC50 (HCC1599): 0.86 µM | EC50 (MCF7): > 3.5 µM | EC50 (MDA-MB-231-Luc): > 3.5 µM | EC50 (T47D): > 3.5 µM | EC50 (ZR-75-1): > 3.5 µM | EC50 ([1]; HCT-116, HCT116 cell line, read-out: Colorectal cancer, EC50 (μM) HCT116): > 3.5 µM | EC50 ([1]; HT-29, HT29 cell line, read-out: Colorectal cancer, EC50 (μM) HT29): > 3.5 µM | EC50 ([1]; SW-620, SW620 cell line, read-out: Colorectal cancer, EC50 (μM) SW620): 1.97 µM | EC50 ([1]; DLD-1 cell line, read-out: Colorectal cancer, EC50 (μM) DLD-1): > 3.5 µM | EC50 ([1]; SW48 cell line, read-out: Colorectal cancer, EC50 (μM) SW48): > 3.5 µM | EC50 ([1]; SW480 cell line, read-out: Colorectal cancer, EC50 (μM) SW480): > 3.5 µM | EC50 ([2]; DND41, DND-41 cell line, read-out: Haematopoietic & Lymphoid tumors, EC50 (μM) DND-41): 0.776 µM | EC50 ([2]; MV4-11, MV-4-11 cell line, read-out: Haematopoietic & Lymphoid tumors, EC50 (μM) MV-4-11): 0.094 µM | EC50 ([2]; Rec1, REC-1 cell line, read-out: Haematopoietic & Lymphoid tumors, EC50 (μM) REC-1): > 3.5 µM | EC50 ([2]; SU-DHL-4, SUDHL4 cell line, read-out: Haematopoietic & Lymphoid tumors, EC50 (μM) SUDHL4): 0.983 µM | EC50 ([2]; HL-60 cell line, read-out: Haematopoietic & Lymphoid tumors, EC50 (μM) HL-60): > 3.5 µM | EC50 ([2]; JM1 cell line, read-out: Haematopoietic & Lymphoid tumors, EC50 (μM) JM1): 0.952 µM | EC50 ([2]; JURKAT, Clone E6-1 cell line, read-out: Haematopoietic & Lymphoid tumors, EC50 (μM) JURKAT, Clone E6-1): > 3.5 µM | EC50 ([2]; JeKo-1 cell line, read-out: Haematopoietic & Lymphoid tumors, EC50 (μM) JeKo-1): 0.357 µM | EC50 ([2]; KASUMI-1 cell line, read-out: Haematopoietic & Lymphoid tumors, EC50 (μM) KASUMI-1): 0.711 µM | EC50 ([2]; Loucy cell line, read-out: Haematopoietic & Lymphoid tumors, EC50 (μM) Loucy): 1.36 µM | EC50 ([2]; MOLT-4 cell line, read-out: Haematopoietic & Lymphoid tumors, EC50 (μM) MOLT-4): > 3.5 µM | EC50 ([2]; TF-1 cell line, read-out: Haematopoietic & Lymphoid tumors, EC50 (μM) TF-1): > 3.5 µM | EC50 ([2]; TOLEDO cell line, read-out: Haematopoietic & Lymphoid tumors, EC50 (μM) TOLEDO): 0.869 µM | EC50 ([3]; SNU-398, SNU398 cell line, read-out: Liver cancer, EC50 SNU398): 0.605 µM | EC50 ([3]; HEPG2 cell line, read-out: Liver cancer, EC50 HEPG2): > 3.5 µM | EC50 ([3]; PLC/PRF/5 cell line, read-out: Liver cancer, EC50 PLC/PRF/5): > 3.5 µM | EC50 ([4]; A-427, A427 cell line, read-out: Lung cancer, EC50 (μM) A427): 3.1 µM | EC50 ([4]; HCC78, HCC-78 cell line, read-out: Lung cancer, EC50 (μM) HCC-78): > 3.5 µM | EC50 ([4]; NCI-H460 cell line, read-out: Lung cancer, EC50 (μM) NCI-H460): > 3.5 µM | EC50 ([4]; NCI-H522 cell line, read-out: Lung cancer, EC50 (μM) NCI-H522): 2.47 µM | EC50 ([5]; PA-1, PA1 cell line, read-out: Ovarian cancer, EC50 (μM) PA1): > 3.5 µM | EC50 ([5]; TOV112D, TOV-112D cell line, read-out: Ovarian cancer, EC50 (μM) TOV-112D): > 3.5 µM | EC50 ([5]; OV-90 cell line, read-out: Ovarian cancer, EC50 (μM) OV-90): > 3.5 µM | EC50 ([5]; OVCAR-3 cell line, read-out: Ovarian cancer, EC50 (μM) OVCAR-3): 0.766 µM | EC50 ([6]; BXPC-3, BxPC3 cell line, read-out: Pancreatic cancer, EC50 BxPC3): > 3.5 µM | EC50 ([6]; CAPAN-1, Capan1 cell line, read-out: Pancreatic cancer, EC50 Capan1): > 3.5 µM | EC50 ([6]; Capan-2, Capan2 cell line, read-out: Pancreatic cancer, EC50 Capan2): > 3.5 µM | EC50 ([6]; MIA PaCa-2 cell line, read-out: Pancreatic cancer, EC50 MIA PaCa-2): 1.69 µM | EC50 ([6]; PANC 05.04 cell line, read-out: Pancreatic cancer, EC50 PANC 05.04): > 3.5 µM | EC50 ([6]; PANC-1 cell line, read-out: Pancreatic cancer, EC50 PANC-1): > 3.5 µM | EC50 ([6]; UPAFII cell line, read-out: Pancreatic cancer, EC50 UPAFII): > 3.5 µM | EC50 ([7]; DU-145, read-out: Prostate cancer EC50 Du-145): > 3.5 µM | EC50 ([7]; PC-3, PC3 cell line, inhibition of cancer cell proliferation, read-out: Prostate cancer EC50 PC3): 3.36 µM | EC50 ([7]; 22Rv1 cell line, inhibition of cancer cell proliferation, read-out: Prostate cancer EC50 22Rv1): > 3.5 µM | EC50 ([7]; LNCap clone FGC cell line, inhibition of cancer cell proliferation, read-out: Prostate cancer EC50 LNCap clone FGC): > 3.5 µM | EC50 ([7]; VCaP (Sigma) cell line, inhibition of cancer cell proliferation, read-out: Prostate cancer EC50 VCaP (Sigma)): > 3.5 µM | EC50 (CLK3): 0.0281 µM
SMILES: O=C1CCc2cccc(c2)-c2cncc3[nH]c(nc23)-c2n[nH]c3ccc(cc23)-c2cncc(c2)N1 [Compound 55]
EC50 (all 50 cell lines): 6.89 µM
